Data on 3 compounds can be found in publication PMC8404199, “Structure–Activity Relationships of Triple-Action Platinum(IV) Prodrugs with Albumin-Binding Properties and Immunomodulating Ligands” (Journal of Medicinal Chemistry, 2021).

Like-named read-outs stand apart in the source and are kept apart here. Bounds are passed on as bounds.

In data set [1] the test system is murine CT26 colon cancer cells. The experiment in a line: MTT cytotoxicity assay in CT26 cells. The class given is cell-based. The procedure: (§1) Cells were additionally incubated with 5-fold equimolar concentrations of ascorbic acid to increase the reduction rate of the compounds. Cell viability was measured by the MTT-based vitality assay (EZ4U; Biomedica, Vienna, Austria), following the manufacturer’s recommendations.
For orientation: Tetrazolium assays rely on reduction of a dye to a coloured formazan, in cell work by metabolically active cells.

Data set [2] concerns human HCT116 colon cancer cells. The experiment in a line: MTT cytotoxicity assay in HCT116 cells. The data set is classed as cell-based. The procedure: as §1
Data set [3] has as its system human embryonic kidney cells (HEK293). The experiment in a line: MTT cytotoxicity assay in non-malignant HEK293 cells. The conditions noted are these: 72 h. The class given is cell-based. The procedure:
(§2) The cells were seeded at 3500–6000 cells/well in 96-well plates depending on the proliferation rate of the respective cell line and allowed to recover for 24 h. Subsequently, the cells were treated at indicated concentrations for 48 or 72 h. Cells were additionally incubated with 5-fold equimolar concentrations of ascorbic acid to increase the reduction rate of the compounds. Cell viability was measured by the MTT-based vitality assay (EZ4U; Biomedica, Vienna, Austria), following the manufacturer’s recommendations.

Data set [4] concerns human hepatic cell line (WRL68). Put plainly: MTT cytotoxicity assay in non-malignant WRL68 cells. The class given is cell-based. The following applies: 72 h. The procedure: as §2
Data set [5] concerns human SKOV3 cancer cells. Put plainly: MTT cytotoxicity assay in SKOV3 cells. The class given is cell-based. The following applies: 72 h incubation. The procedure: as §2
Data set [6] deals with VM7 melanoma cancer cells. Put plainly: MTT cytotoxicity assay in VM7 cells. The data set is classed as cell-based, human. The following applies: 72 h. As to the method:
as §2

Data set [7] relates to SKOV3 cancer cells. Put plainly: Long-term cytotoxicity assay (crystal violet) in SKOV3 cells. The class given is cell-based, human. The conditions noted are these: 168 h, crystal violet stain, mean ± SD. The procedure:
SKOV3 cells were seeded in duplicates at 5000 cells/well in 24-well plates and allowed to recover for 24 h. Subsequently, the cells were treated at the indicated concentrations for 168 h. Cells were fixed with ice-cold methanol (20 min at 4 °C), washed with PBS, and stained with crystal violet. Subsequently, colony formation was inspected, and the fluorescence signal was detected using Typhoon Trio imager (GE Healthcare, Little Chalfont, UK) at 610/30 nm BP and analyzed by ImageJ software.

Data set [8] can be described thus: log D7.4 determination by shake flask method and ICP-MS. The class given is physicochemical. The conditions noted are these: n-octanol/phosphate buffer pH 7.4, Pt by ICP-MS. The procedure: 50 mM stock solutions of the succinimide complexes in DMF were diluted in phosphate buffer (20 mM, pH 7.4, pre-saturated with n-octanol) to a final concentration of 50 μM drug and 0.1% DMF. The platinum content of these aqueous solutions was measured by ICP–MS (see above). The solutions were mixed 1:1 with n-octanol and shaken on a 360° rotatable rack for 3 h. The solutions were centrifuged for 5 min (860g, RT), the aqueous layers were carefully removed, and their Pt content was measured by ICP–MS. Experiments were performed and measured in duplicates, and averages were used for further calculations. log D7.4 values were calculated by the following equation [drawing 1]

Data set [9] in a line: UHPLC reduction experiments with L-ascorbic acid. The conditions noted are these: 1 mM complex, 10-fold excess AA, phosphate buffer pH 7.4, 1% DMF, 20 °C. The class given is physicochemical. The procedure:
The platinum(IV)–succinimide complexes were dissolved in 2% DMF in phosphate buffer (500 mM, pH 7.4) to a final concentration of 2 mM. The solutions were then mixed 1:1 with a 20 mM stock of L-ascorbic acid in phosphate buffer (500 mM, pH 7.4) to obtain final concentrations of 1 mM complex, 10 mM L-ascorbic acid, and 1% DMF. The samples were incubated at 20 °C and measured on a Dionex UltiMate 3000 RS UPLC system with a Waters Acquity UPLC BEH C18 column (3 × 50 mm, pore size 1.7 μm) and absorption detection at 220 nm. Data points were taken at t = 0 and every 30 min for 6 h.

In data set [10] the target is T1, albumin (Bos taurus, UniProt P02769).
T1 construct: FCS was purchased from Sigma-Aldrich and buffered with 150 mM phosphate buffer (pH 7.4); tissue Sigma-Aldrich; host or cells: fetal calf serum
T1 sequence (P02769 25-607): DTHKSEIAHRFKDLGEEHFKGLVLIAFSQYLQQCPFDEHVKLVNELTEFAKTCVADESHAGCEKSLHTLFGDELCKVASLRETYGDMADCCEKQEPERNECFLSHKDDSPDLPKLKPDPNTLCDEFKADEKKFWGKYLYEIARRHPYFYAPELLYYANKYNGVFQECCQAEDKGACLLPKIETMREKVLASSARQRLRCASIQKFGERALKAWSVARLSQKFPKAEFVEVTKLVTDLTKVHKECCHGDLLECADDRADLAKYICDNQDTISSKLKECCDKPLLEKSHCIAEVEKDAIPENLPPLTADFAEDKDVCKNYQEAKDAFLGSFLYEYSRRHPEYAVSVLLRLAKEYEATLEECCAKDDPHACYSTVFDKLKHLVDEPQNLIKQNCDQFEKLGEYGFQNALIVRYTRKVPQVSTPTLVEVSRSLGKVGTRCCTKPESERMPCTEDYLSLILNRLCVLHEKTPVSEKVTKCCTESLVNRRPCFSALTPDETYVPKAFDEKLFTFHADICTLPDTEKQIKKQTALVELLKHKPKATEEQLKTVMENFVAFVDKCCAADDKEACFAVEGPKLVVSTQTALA
Put plainly: SEC-ICP-MS albumin binding and serum stability in fetal calf serum. The class given is in vitro ADME. The following applies: FCS + 150 mM phosphate buffer pH 7.4, 37 °C. As to the method: FCS was purchased from Sigma-Aldrich and buffered with 150 mM phosphate buffer (pH 7.4) to guarantee a stable pH. The maleimide-bearing platinum(IV) complexes were dissolved in 10% DMF in 150 mM phosphate buffer (pH 7.4) to 1 mM and diluted 1:10 in serum to obtain a final concentration of 100 μM. The samples were then incubated in the autosampler at 37 °C for 24 h and analyzed every 1 h. Between each sample, a pure water blank was measured. For SEC–ICP–MS measurements, an Agilent 1260 Infinity system coupled to an Agilent 7800 ICP–MS equipped with a dynamic reaction cell was used. Oxygen (purity 5.5, Messer Austria GmbH, Gumpoldskirchen, Austria) was used as reaction gas.

Data set [11] relates to SKOV3 cell lysates. The experiment in a line: Reduction and 1-MDT release in SKOV3 lysates. The class given is in vitro ADME, human. The following applies: 100 μM, 37 °C. As to the method:
SKOV3 cells were grown in four T225 […] cell culture flasks to reach a high cell number. On the day of cell lysate isolation, cells were washed with PBS, scraped from the surface, and centrifuged. Each cell pellet was lysed in ∼160 μL lysis buffer (15 mM NaCl 0.5% Triton X, ultrapure) and incubated on ice for 1 h. The samples were then centrifuged for 15 min at 14,000 rpm (4 °C), and the cleared lysate was pooled and kept at −80 °C until analysis. Cell lysates were treated with 2 mM stock solutions of respective complexes in 4% DMF and phosphate buffer (100 mM, pH 7.4) to obtain a final compound concentration of 100 μM and incubated at 37 °C. After 0, 4, 24, and 72 h, three volume equivalents of cold MeOH were added to sample aliquots. Samples were stored at 4 °C for 10 min and centrifuged (15,080g, 4 °C, 10 min). LC–MS analysis of the supernatant was performed on an Agilent 1260 Infinity system using a Waters Atlantis T3 column (150 mm × 4.6 mm) and absorption detection at 230 nm, coupled to a Bruker amaZon SL ESI-IT mass spectrometer. Milli-Q water, containing 0.1% formic acid, and acetonitrile, containing 0.1% formic acid, were used as eluents. A gradient of 1–99% acetonitrile in 20 min was used.

Setting [12] is: 48 h incubation, without AA, read-out: CT26 IC50 values, mean ± SD.
The mark [13] stands for this setting: 72 h incubation, with 5 eq. AA, read-out: CT26 IC50 values + 5 eq. AA, mean.
The mark [14] stands for this setting: 72 h incubation, without AA, read-out: CT26 IC50 values, mean.
Setting [15] is: 48 h incubation, with 5 equiv AA, read-out: HCT116 IC50 values +AA, mean ± SD.
The mark [16] stands for this setting: 48 h incubation, without AA, read-out: HCT116 IC50 values, mean ± SD.
The mark [17] stands for this setting: 72 h incubation, with 5 eq. AA, read-out: HCT116 IC50 values + 5 eq. AA, mean.
Setting [18] is: 72 h incubation, without AA, read-out: HCT116 IC50 values, mean.
[19] abbreviates: with 5 eq. AA, read-out: SKOV3 IC50 values + 5 eq. AA, mean.
[20] abbreviates: without AA, read-out: SKOV3 IC50 values, mean.
Setting [21] is: 48 h incubation, with 5 equiv AA, read-out: CT26 IC50 values +AA, mean ± SD.

Take `Cn1cc(C[C@@H]([NH3+])C(=O)[O][Pt]2([O]C(=O)CCCCCN3C(=O)CCC3=O)[O]C(=O)C(=O)[O]2)c2ccccc21.N[C@@H]1CCCC[C@H]1N.O=C([O-])C(F)(F)F` [SucEs/IdoEs, (OC-6-44)-[(R)-2-Ammonio-3-(1-methyl-1H-indol-3-yl)propanoato][(1R,2R)-1,2-cyclohexanediamino][6-(2,5-dioxopyrrolidin-1-yl)hexanoato]oxalatoplatinum(IV) Trifluoroacetate]: the IC50 (in general, the concentration that inhibits the measured activity by half) worked out at 91.5 ± 3.84 µM in [1] (setting [12]); 18.1 µM in data set [1] (setting [13]); 44.9 µM in data set [1] (setting [14]); 6.94 ± 0.33 µM in data set [2] (setting [15]); 22.8 ± 1.15 µM in data set [2] (setting [16]); 4.89 µM in [2] (setting [17]). Besides, the half-inhibitory concentration (IC50) was 5.45 µM in data set [2] (setting [18]); 44.2 µM in data set [3]; 81.7 µM in data set [4]; over 100 µM in data set [5] (setting [19]); over 100 µM in [5] (setting [20]); over 100 µM in data set [6]. The compound further gave an IC50 in data set [7] of 19.4 ± 1.2 µM. For the same compound, the “log D7.4” value in data set [8] was “–0.30”. In addition, the “time until complex completely reduced” value in data set [9] is at most 2 h. For the same compound, in [10], the “albumin binding in serum (in words)” value is given as “significant binding to albumin (tR ~4 min) could be observed for any of the compounds”. Also, in data set [11], the “1-MDT release after 72 h” value was about 100%.

On to `Cn1cc(C[C@@H](NC(=O)[O][Pt]2([O]C(=O)CCCCCN3C(=O)CCC3=O)[O]C(=O)C(=O)[O]2)C(=O)O)c2ccccc21.N[C@@H]1CCCC[C@H]1N` [SucEs/IdoCa], for which the “ratio (IC50 without AA / with AA), CT26” value is at least 3 in data set [1] (48 h) and 1.97 in data set [1] (72 h). Moreover, the IC50 in data set [1] (setting [21]) is 26.7 ± 0.75 µM; in [1] (setting [12]), over 100 µM; in [1] (setting [13]), 46 µM; in data set [1] (setting [14]), 90.5 µM; in data set [2] (setting [15]), 35.4 ± 6.54 µM; in data set [2] (setting [16]) it was over 100 µM. For the same compound, the IC50 in data set [2] (setting [17]) was 20.8 µM; in [2] (setting [18]), 82.1 µM; in data set [3], 77.5 µM; in data set [4], over 100 µM; in data set [5] (setting [19]), over 100 µM; in [5] (setting [20]), over 100 µM. For the same compound, the results for the IC50 in data set [6] and in [7] were over 100 µM and 53.1 ± 4.5 µM, respectively. Moreover, the “ratio (IC50 without AA / with AA), HCT116” value was at least 2.8 in [2] (48 h) and 3.94 in [2] (72 h). In data set [8], the “log D7.4” value is recorded as “–2.02”. Besides, the “complex intact after 6 h” value in data set [9] is on record as 90%. Also, the “albumin binding in serum (in words)” value in [10] is recorded as “significant binding to albumin (tR ~4 min) could be observed for any of the compounds”. For the same compound, in data set [11], the “still present as platinum(IV) species after 72 h” value is about 50%.

Regarding `Cn1cc(CC([NH3+])C(=O)[O][Pt]23([O]C(=O)NCCCCCN4C(=O)CCC4=O)([NH]C4CCCCC4[NH]2)[O]C(=O)C(=O)[O]3)c2ccccc21.O=C([O-])C(F)(F)F` [SucCa/IdoEs, (OC-6-34)-[(R)-2-Ammonio-3-(1-methyl-1H-indol-3-yl)propanoato][(1R,2R)-1,2-cyclohexanediamino][5-(2,5-dioxo-2,5-dihydro-1H-pyrrolidin-1-yl)pentylcarbamato]oxalatoplatinum(IV) Trifluoroacetate], the IC50 in [1] (setting [21]) turned out to be 10.8 ± 1.04 µM; in data set [1] (setting [12]) it was 60.1 ± 6.49 µM; in [1] (setting [13]), 16.9 µM; in data set [1] (setting [14]), 31.9 µM; in [2] (setting [15]), 7.36 ± 1.14 µM; in data set [2] (setting [16]), 26 ± 3.21 µM. Moreover, the IC50 in data set [2] (setting [17]) is 5.35 µM; in data set [2] (setting [18]), 7.23 µM; in data set [3], 33.2 µM; in data set [4] it was 76.4 µM; in [5] (setting [19]), over 100 µM; in data set [5] (setting [20]), over 100 µM. For the same compound, the IC50 was over 100 µM in data set [6] and 18.4 ± 3 µM in data set [7]. Also, in [8], the “log D7.4” value is reported as “–0.16”. In addition, in data set [9], the “time until complex completely reduced” value was at most 2 h. Besides, in data set [10], the “albumin binding in serum (in words)” value was “significant binding to albumin (tR ~4 min) could be observed for any of the compounds”. Besides, the “1-MDT release after 72 h” value in [11] is about 100%.
